Measured values taken from PubChem BioAssay AID248 (DTP/NCI, 2004).
Where “and” joins values, the source holds several entries; their conditions need not be identical. Equal entries are not always repeated. Inconclusive results and toxic doses are left out. Rule as the data show it: active = T/C of 150% or more; inactive = T/C below 125%.

System: L1210 leukemia ip in BDF1 mice, survival T/C
Assay: NCI In Vivo Anticancer Drug Screen. Data for tumor model L1210 Leukemia (intraperitoneal) in B6D2F1 (BDF1) mice
Conditions: endpoint: mean survival time, higher = longer survival
Outline: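 Ratio derived from survival: compound-dosed mice over vehicle-dosed mice, all bearing a transplantable tumor.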

[1] = dose: 100.0 mg/kg/injection, schedule: Q04DX003 (ip), vehicle: Klucel (hydroxypropylcellulose) (HPC)
[2] = dose: 100.0 mg/kg/injection, schedule: Q01DX009 (ip), vehicle: Klucel (hydroxypropylcellulose) (HPC)
[3] = dose: 200.0 mg/kg/injection, schedule: Q01DX009 (ip), vehicle: Klucel (hydroxypropylcellulose) (HPC)
[4] = dose: 400.0 mg/kg/injection, schedule: Q01DX009 (ip), vehicle: Klucel (hydroxypropylcellulose) (HPC)
[5] = dose: 100.0 mg/kg/injection, schedule: Q04DX003 (ip), vehicle: saline with Tween-80
[6] = dose: 200.0 mg/kg/injection, schedule: Q04DX003 (ip), vehicle: saline with Tween-80
[7] = dose: 400.0 mg/kg/injection, schedule: Q04DX003 (ip), vehicle: saline with Tween-80
[8] = dose: 100.0 mg/kg/injection, schedule: Q01DX009 (ip), vehicle: saline
[9] = dose: 100.0 mg/kg/injection, schedule: Q04DX003 (ip), vehicle: saline
[10] = dose: 200.0 mg/kg/injection, schedule: Q04DX003 (ip), vehicle: saline
[11] = dose: 400.0 mg/kg/injection, schedule: Q04DX003 (ip), vehicle: saline
[12] = dose: 100.0 mg/kg/injection, schedule: Q04DX002 (ip), vehicle: Klucel (hydroxypropylcellulose) (HPC)
[13] = dose: 200.0 mg/kg/injection, schedule: Q04DX002 (ip), vehicle: Klucel (hydroxypropylcellulose) (HPC)
[14] = dose: 400.0 mg/kg/injection, schedule: Q04DX002 (ip), vehicle: Klucel (hydroxypropylcellulose) (HPC)
[15] = dose: 25.0 mg/kg/injection, schedule: Q01DX001 (ip), vehicle: saline
[16] = dose: 50.0 mg/kg/injection, schedule: Q01DX001 (ip), vehicle: saline
[17] = dose: 100.0 mg/kg/injection, schedule: Q01DX001 (ip), vehicle: saline

Measured: T/C

O=NC12CCCCC1C(O)c1cc(Cl)cc(Cl)c1O2 (centres undefined)
inactive: dose: 100.0 mg/kg/injection, schedule: Q01DX009 (ip), vehicle: other 119 % of control | [1] 101 % of control | dose: 200.0 mg/kg/injection, schedule: Q01DX009 (ip), vehicle: other 95 % of control | dose: 200.0 mg/kg/injection, schedule: Q04DX003 (ip), vehicle: Klucel (hydroxypropylcellulose) (HPC) 95 % of control | dose: 400.0 mg/kg/injection, schedule: Q01DX009 (ip), vehicle: other 89 % of control | dose: 400.0 mg/kg/injection, schedule: Q04DX003 (ip), vehicle: Klucel (hydroxypropylcellulose) (HPC) 102 % of control

O=C(O)c1c(Br)c(Br)c(Br)c(Br)c1C(=O)Nc1ccc(Cl)c(Cl)c1
inactive: [2] 95 % of control | [3] 98 % of control | [4] 120 % of control

COc1ccccc1CN1CCCOP1(=O)Nc1ccccc1 (centres undefined)
inactive: dose: 50.0 mg/kg/injection, schedule: Q01DX001 (ip), vehicle: carboxymethylcellulose (CMC) 91 % of control | dose: 100.0 mg/kg/injection, schedule: Q01DX001 (ip), vehicle: carboxymethylcellulose (CMC) 91 % of control | dose: 200.0 mg/kg/injection, schedule: Q01DX001 (ip), vehicle: carboxymethylcellulose (CMC) 93 % of control | dose: 400.0 mg/kg/injection, schedule: Q01DX001 (ip), vehicle: carboxymethylcellulose (CMC) 93 % of control

C(=NCC1CCC(CN=Cc2ccco2)CC1)c1ccco1 (centres undefined)
inactive: dose: 100.0 mg/kg/injection, schedule: Q01DX009 (ip), vehicle: saline with Tween-80 94 % of control | [5] 109 % of control | dose: 200.0 mg/kg/injection, schedule: Q01DX009 (ip), vehicle: saline with Tween-80 98 % of control | [6] 102 % of control | dose: 400.0 mg/kg/injection, schedule: Q01DX009 (ip), vehicle: saline with Tween-80 100 % of control | [7] 106 % of control

CS(=O)(=O)Nc1cc(C(O)C2CCCCN2)ccc1O (centres undefined)
inactive: dose: 25.0 mg/kg/injection, schedule: Q01DX009 (ip), vehicle: saline 103 % of control | dose: 50.0 mg/kg/injection, schedule: Q01DX009 (ip), vehicle: saline 97 % of control | [8] 95 % of control | [9] 104 % of control | [10] 104 % of control

CN(C)/N=[N+](\[O-])c1ccccc1
inactive: dose: 6.25 mg/kg/injection, schedule: Q01DX009 (ip), vehicle: Klucel (hydroxypropylcellulose) (HPC) 103 % of control | dose: 12.5 mg/kg/injection, schedule: Q01DX009 (ip), vehicle: Klucel (hydroxypropylcellulose) (HPC) 100 % of control and 105 % of control | dose: 25.0 mg/kg/injection, schedule: Q01DX009 (ip), vehicle: Klucel (hydroxypropylcellulose) (HPC) 97 % of control and 104 % of control | dose: 25.0 mg/kg/injection, schedule: Q04DX003 (ip), vehicle: Klucel (hydroxypropylcellulose) (HPC) 96 % of control | dose: 50.0 mg/kg/injection, schedule: Q01DX009 (ip), vehicle: Klucel (hydroxypropylcellulose) (HPC) 100 % of control and 105 % of control | dose: 50.0 mg/kg/injection, schedule: Q04DX003 (ip), vehicle: Klucel (hydroxypropylcellulose) (HPC) 95 % of control and 108 % of control | [1] 95 % of control and 105 % of control

Fc1ccc(C(Cl)Cl)cc1
inactive: [8] 102 % of control | [9] 97 % of control and 86 % of control | dose: 200.0 mg/kg/injection, schedule: Q01DX009 (ip), vehicle: saline 99 % of control | [10] 101 % of control | [11] 101 % of control and 89 % of control

CC(C)=CC=O
inactive: dose: 100.0 mg/kg/injection, schedule: Q01DX009 (ip), vehicle: saline sonified 97 % of control | [9] 96 % of control | dose: 200.0 mg/kg/injection, schedule: Q01DX009 (ip), vehicle: saline sonified 100 % of control | [10] 97 % of control | [11] 103 % of control

N#CCCP(=S)(CCC#N)CCC#N
inactive: [12] 94 % of control | [13] 112 % of control | [14] 105 % of control

c1ccc([P+](CCC[P+](c2ccccc2)(c2ccccc2)c2ccccc2)(c2ccccc2)c2ccccc2)cc1
inactive: dose: 2.0 mg/kg/injection, schedule: Q01DX009 (ip), vehicle: saline 105 % of control | dose: 2.0 mg/kg/injection, schedule: Q04DX003 (ip), vehicle: saline 106 % of control | dose: 4.0 mg/kg/injection, schedule: Q01DX009 (ip), vehicle: saline 108 % of control | dose: 4.0 mg/kg/injection, schedule: Q04DX003 (ip), vehicle: saline 101 % of control | dose: 8.0 mg/kg/injection, schedule: Q01DX009 (ip), vehicle: saline 107 % of control | dose: 8.0 mg/kg/injection, schedule: Q04DX003 (ip), vehicle: saline 94 % of control and 97 % of control

Cc1cccc(NC(=O)C(C)(C)C)c1C
inactive: [2] 106 % of control | [3] 95 % of control | [4] 101 % of control

CN(C(=O)/C=C\c1ccccc1)c1ccccc1
inactive: [12] 104 % of control | [13] 104 % of control | [14] 104 % of control

CC1(C)C(C)(C)C12C=CC=C2
inactive: [15] 104 % of control | [16] 102 % of control | [17] 101 % of control

CCNC(=O)N(CC)N=O
inactive: dose: 6.25 mg/kg/injection, schedule: Q01DX001 (ip), vehicle: saline 97 % of control | dose: 12.5 mg/kg/injection, schedule: Q01DX001 (ip), vehicle: saline 102 % of control | [15] 100 % of control | [16] 97 % of control | [17] 110 % of control | dose: 200.0 mg/kg/injection, schedule: Q01DX001 (ip), vehicle: saline 113 % of control | dose: 300.0 mg/kg/injection, schedule: Q01DX001 (ip), vehicle: saline 124 % of control | dose: 500.0 mg/kg/injection, schedule: Q01DX001 (ip), vehicle: saline 112 % of control

Nc1n[nH]c(=S)n1-c1ccc(Cl)cc1
inactive: [5] 88 % of control | [6] 93 % of control | [7] 93 % of control

CCCCCCCCCCCCCCCCCCNC(=S)NN=C(NNC(=S)NCCCCCCCCCCCCCCCCCC)NNC(=S)NCCCCCCCCCCCCCCCCCC
inactive: dose: 15.0 mg/kg/injection, schedule: Q01DX Z (ip), vehicle: carboxymethylcellulose (CMC) 101 % of control | dose: 30.0 mg/kg/injection, schedule: Q01DX Z (ip), vehicle: carboxymethylcellulose (CMC) 111 % of control | dose: 60.0 mg/kg/injection, schedule: Q01DX Z (ip), vehicle: carboxymethylcellulose (CMC) 109 % of control and 114 % of control | dose: 120.0 mg/kg/injection, schedule: Q01DX Z (ip), vehicle: carboxymethylcellulose (CMC) 114 % of control | dose: 240.0 mg/kg/injection, schedule: Q01DX Z (ip), vehicle: carboxymethylcellulose (CMC) 111 % of control | dose: 480.0 mg/kg/injection, schedule: Q01DX Z (ip), vehicle: carboxymethylcellulose (CMC) 111 % of control

O=C(Cc1ccccc1S(=O)(=O)Nc1ccccc1)c1ccccc1
inactive: dose: 100.0 mg/kg/injection, schedule: Q01DX001 (ip), vehicle: steriod suspending solution 96 % of control | dose: 200.0 mg/kg/injection, schedule: Q01DX001 (ip), vehicle: steriod suspending solution 86 % of control | dose: 400.0 mg/kg/injection, schedule: Q01DX001 (ip), vehicle: steriod suspending solution 91 % of control
